Tests used:
[1] = tested on: Aβ42; experiment: Aβ42 IC50 assay (SHSYSY-APP cell-based screening, UCSD sandwich Aβ42 ELISA)
Source text: FIG. 8: Representative concentration response curves of Compound 1 using our primary and orthogonal medium throughput SHSYSY-APP cell-based screening assays (10). Compounds are first screened two times in triplicate in our UCSD sandwich Aβ42 ELISA on sequential days and the average of the two assays must be within 3-fold of each other before being entered into the CDD relational database. The UCSD sandwich ELISA assay can easily handle 20 compounds per week. Compounds with Aβ42 IC50 values <100 nM continue through the testing funnel. The Z′ score and the % CV for the UCSD Aβ42 sandwich ELISA assay are 0.8 and 4, respectively. For the Meso Scale triplex assay the Z′ scores are 0.7, 0.9 and 0.6 Aβ42, Aβ40 and Aβ38, respectively and the % CV's are 7, 2 and 1 for Aβ42, Aβ40 and Aβ38, respectively. Aβ total peptides are measured using a sandwich ELISA.
Tabular Results of A1142 Assays Conducted on Compounds of Examples 5-102. Assays are Aβ42 IC50 (nM).

[2] = tested on: Notch processing; experiment: Notch processing in transfected H4-APP751 cells (Western blot, Myc antibody, NICD); type: cell-based, human; conditions: 24 hrs
Source text: Cells were harvested 48 hrs post transfection and applied to Western blotting analysis. Myc antibody was utilized to assess the NAED and NICD tagged with Myc on their N-termini. β-Actin was utilized as the loading control.
Cells were harvested 48 hrs post transfection and subjected to Western blotting analysis. Myc antibody was utilized to assess the NδED and NICD tagged with Myc on their N-termini.
Stable H4 human neuroglioma cells over-expressing human APP751, or H4-APP751 cells, were transfected with the NAE construct, and then treated with different concentrations SGSM Compound 1 (Lanes 1-6) or DAPT (Lanes 7-10) for another 24 hrs and are shown in FIG. 9. Cells were harvested 48 hrs post transfection and applied to Western blotting analysis. Myc antibody was utilized to assess the NAED and NICD tagged with Myc on their N-termini β-Actin was utilized as the loading control.
Stably-transfected H4 human neuroglioma cells over-expressing human APP751 (H4-APP751) cells, were transfected with the Notch NδED construct, and then treated with vehicle, or different doses of GSMs (40 nM, 200 nM, 1000 nM, and 5000 nM) for 24 hrs. Cells were harvested 48 hrs post transfection and subjected to Western blotting analysis.

melting point | IC50 [1] | SMILES | other results
99 to 102 °C | 0.0071 µM | COc1nc(-c2cc(C)c(N[C@@H]3C[C@H]3c3ccccc3)nn2)ccc1-n1cnc(C)c1 (racemic) [Example 72, (+/−)-trans-6-(6-methoxy-5-(4-methyl-1H-imidazol-1-yl)pyridin-2-yl)-4-methyl-N-(2-phenylcyclopropyl)pyridazin-3-amine] | 
96 to 102 °C |  | COc1nc(-c2ccc(N[C@@H](C)c3ccc(F)cc3)nn2)ccc1-n1cnc(C)c1 [Compound 2, (S)—N-(1-(4-Fluorophenyl)ethyl)-6-(6-methoxy-5-(4-methyl-1H-imidazol-1-yl)pyridin-2-yl)pyridazin-3-amine] | 
 |  | C[C@H](NC(=O)Cc1cc(F)cc(F)c1)C(=O)N[C@H](C(=O)OC(C)(C)C)c1ccccc1 [DAPT, reference compound] | Notch processing (NICD, Western blot) ([2]; H4-APP751 cells transfected with the NAE construct, different concentrations): significantly inhibits Notch processing; Notch processing (NICD levels, Western blot) ([2]; H4-APP751 cells transfected with the Notch NδED construct, 40 nM, 200 nM, 1000 nM, and 5000 nM): significantly inhibits Notch processing
245 to 246 °C | 0.021 µM | COc1nc(-c2cc(C(C)C)c(NCc3ccc(F)cc3)nn2)ccc1-n1cnc(C)c1 [Example 13, N-(4-fluorobenzyl)-4-isopropyl-6-(6-methoxy-5-(4-methyl-1H-imidazol-1-yl)pyridin-2-yl)pyridazin-3-amine] | 
> 250 °C |  | COc1nc(-c2ccc(N)nn2)ccc1-n1cnc(C)c1 [Example 24A, 6-(6-Methoxy-5-(4-methyl-1H-imidazol-1-yl)pyridin-2-yl)pyridazin-3-amine] | 
> 250 °C | > 10 µM | COc1nc(-c2ccc(NC(=O)c3ccc(F)cc3)nn2)ccc1-n1cnc(C)c1 [Example 24B, 4-Fluoro-N-(6-(6-methoxy-5-(4-methyl-1H-imidazol-1-yl)pyridin-2-yl)pyridazin-3-yl)benzamide] | 
170 to 172 °C | 0.036 µM | COc1nc(-c2ccc(NCc3ccc(F)cc3)nn2)ccc1-n1cnc(C)c1 [Example 26, N-(4-fluorobenzyl)-6-(6-methoxy-5-(4-methyl-1H-imidazol-1-yl)pyridin-2-yl)pyridazin-3-amine] | 
140 to 143 °C | 0.018 µM | COc1nc(-c2nnc(N[C@@H](C)c3ccccc3)cc2C)ccc1-n1cnc(C)c1 [Example 28, (S)-6-(6-methoxy-5-(4-methyl-1H-imidazol-1-yl)pyridin-2-yl)-5-methyl-N-(1-phenylethyl)pyridazin-3-amine] | 
204 to 206 °C | 0.038 µM | COc1nc(-c2cc(C)c(NCCc3ccc(F)cc3)nn2)ccc1-n1cnc(C)c1 [Example 50, N-(4-fluorophenethyl)-6-(6-methoxy-5-(4-methyl-1H-imidazol-1-yl)pyridin-2-yl)-4-methylpyridazin-3-amine] | 
228 to 229 °C | 0.188 µM | COc1nc(-c2cc(C)c(NC(C)C)nn2)ccc1-n1cnc(C)c1 [Example 65, N-isopropyl-6-(6-methoxy-5-(4-methyl-1H-imidazol-1-yl)pyridin-2-yl)-4-methylpyridazin-3-amine] | 
204 to 206 °C | 0.026 µM | COc1nc(-c2cc(C)c(NCCCc3ccc(F)cc3)nn2)ccc1-n1cnc(C)c1 [Example 73, N-(3-(4-fluorophenyl)propyl)-6-(6-methoxy-5-(4-methyl-1H-imidazol-1-yl)pyridin-2-yl)-4-methylpyridazin-3-amine] | 
 | 0.027 µM | COc1nc(-c2cc(C)c(N[C@@H](C)c3ccc(C#N)cc3)nn2)ccc1-n1cnc(C)c1 [Example 77, (S)-4-(1-((6-(6-methoxy-5-(4-methyl-1H-imidazol-1-yl)pyridin-2-yl)-4-methylpyridazin-3-yl)amino)ethyl)benzonitrile] | 
 | 0.061 µM | COc1nc(-c2cc(C)c(NC3CCCC3)nn2)ccc1-n1cnc(C)c1 [Example 78, N-cyclopentyl-6-(6-methoxy-5-(4-methyl-1H-imidazol-1-yl)pyridin-2-yl)-4-methylpyridazin-3-amine] | 
 | 0.0075 µM | CCC[C@H](Nc1nnc(-c2ccc(-n3cnc(C)c3)c(OC)n2)cc1C)c1ccc(F)cc1 [Example 79, (S)—N-(1-(4-fluorophenyl)butyl)-6-(6-methoxy-5-(4-methyl-1H-imidazol-1-yl)pyridin-2-yl)-4-methylpyridazin-3-amine] | 
 | 1.1 µM | COc1nc(-c2cc(C)c(N[C@H](CO)c3ccc(F)cc3)nn2)ccc1-n1cnc(C)c1 [Example 80, (S)-2-(4-fluorophenyl)-2-((6-(6-methoxy-5-(4-methyl-1H-imidazol-1-yl)pyridin-2-yl)-4-methylpyridazin-3-yl)amino)ethanol] | 
 | 0.027 µM | COc1nc(-c2cc(C)c(NC3CCCCC3)nn2)ccc1-n1cnc(C)c1 [Example 81, N-cyclohexyl-6-(6-methoxy-5-(4-methyl-1H-imidazol-1-yl)pyridin-2-yl)-4-methylpyridazin-3-amine] | 
 | 0.0035 µM | COc1nc(-c2cc(C)c(N[C@@H](C)c3ccc(F)cc3C(F)(F)F)nn2)ccc1-n1cnc(C)c1 [Example 82, (S)—N-(1-(4-fluoro-2-(trifluoromethyl)phenyl)ethyl)-6-(6-methoxy-5-(4-methyl-1H-imidazol-1-yl)pyridin-2-yl)-4-methylpyridazin-3-amine] | 
 | 0.027 µM | COc1nc(-c2cc(C)c(N[C@@H]3C[C@H]3c3ccc(F)c(F)c3)nn2)ccc1-n1cnc(C)c1 [Example 83, N-((1R,2S)-2-(3,4-difluorophenyl)cyclopropyl)-6-(6-methoxy-5-(4-methyl-1H-imidazol-1-yl)pyridin-2-yl)-4-methylpyridazin-3-amine] | 
 | 0.023 µM | CC[C@H](Nc1nnc(-c2ccc(-n3cnc(C)c3)c(OC)n2)cc1C)c1ccc(C#N)cc1 [Example 84, (S)-4-(1-((6-(6-methoxy-5-(4-methyl-1H-imidazol-1-yl)pyridin-2-yl)-4-methylpyridazin-3-yl)amino)propyl)benzonitrile] | 
 | 0.07 µM | COc1nc(-c2cc(C)c(NC3CCC(F)(F)CC3)nn2)ccc1-n1cnc(C)c1 [Example 85, N-(4,4-difluorocyclohexyl)-6-(6-methoxy-5-(4-methyl-1H-imidazol-1-yl)pyridin-2-yl)-4-methyl pyridazin-3-amine] | 
 | 0.0045 µM | CCC[C@H](Nc1nnc(-c2ccc(-n3cnc(C)c3)c(OC)n2)cc1C)c1ccccc1F [Example 86, (S)—N-(1-(2-fluorophenyl)butyl)-6-(6-methoxy-5-(4-methyl-1H-imidazol-1-yl)pyridin-2-yl)-4-methylpyridazin-3-amine] | 
 | 0.0115 µM | COC[C@H](Nc1nnc(-c2ccc(-n3cnc(C)c3)c(OC)n2)cc1C)c1ccc(F)cc1 [Example 87, (R)—N-(1-(4-fluorophenyl)-2-methoxyethyl)-6-(6-methoxy-5-(4-methyl-1H-imidazol-1-yl)pyridin-2-yl)-4-methylpyridazin-3-amine] | 
 | 0.012 µM | CC[C@H](Nc1nnc(-c2ccc(-n3cnc(C)c3)c(OC)n2)cc1C)c1ccccc1F [Example 88, (S)—N-(1-(2-fluorophenyl)propyl)-6-(6-methoxy-5-(4-methyl-1H-imidazol-1-yl)pyridin-2-yl)-4-methylpyridazin-3-amine] | 
 | 0.004 µM | COc1nc(-c2cc(C)c(N[C@@H](C)c3cccc(C)c3C)nn2)ccc1-n1cnc(C)c1 [Example 100, (S)—N-(1-(2,3-dimethylphenyl)ethyl)-6-(6-methoxy-5-(4-methyl-1H-imidazol-1-yl)pyridin-2-yl)-4-methylpyridazin-3-amine] | 
 | 0.005 µM | COc1nc(-c2cc(C)c(N[C@@H](C)c3cccc(C(F)(F)F)c3F)nn2)ccc1-n1cnc(C)c1 [Example 101, (S)—N-(1-(2-fluoro-3-(trifluoromethyl)phenyl)ethyl)-6-(6-methoxy-5-(4-methyl-1H-imidazol-1-yl)pyridin-2-yl)-4-methylpyridazin-3-amine] | 
 | 0.006 µM | COc1nc(-c2cc(C)c(N[C@H](c3ccc(F)cc3)C(C)(C)O)nn2)ccc1-n1cnc(C)c1 [Example 102, (R)-1-(4-fluorophenyl)-1-((6-(6-methoxy-5-(4-methyl-1H-imidazol-1-yl)pyridin-2-yl)-4-methylpyridazin-3-yl)amino)-2-methylpropan-2-ol] | 
 | 0.013 µM | COc1nc(-c2cc(C)c(N[C@H](C)c3ccc(F)cc3Cl)nn2)ccc1-n1cnc(C)c1 [Example 103, (R)—N-(1-(2-chloro-4-fluorophenyl)ethyl)-6-(6-methoxy-5-(4-methyl-1H-imidazol-1-yl)pyridin-2-yl)-4-methylpyridazin-3-amine] | 

From patent US10472346B2, “Potent gamma-secretase modulators” (The General Hospital Coporation, priority 2014, dated 2019)
